Experimental findings from ChEMBL document CHEMBL5608141, “Identification of compartment-specific drug sensitivities in CRC organoid-stroma co-cultures” (2024) are described below.

Common to all, as to format: functional, Homo sapiens
What all share (parameters): dose or concentration left out as unconfirmed

For assay [1], the system named is Colon cancer organoid. Kind of assay: Identification of compartment-specific drug sensitivities in O06 CRC organoid-stroma F06 CAF co-cultures. Organoid is transduced with Lucferase2-P2A-EGFP lentivirus, fibroblast with Renilla-dsRed lentivirus. Dual-Glo Luciferase assay is used to report viability data.
Assay [2] deals with Colon cancer organoid. Kind of assay: Identification of compartment-specific drug sensitivities in O14 CRC organoid-stroma F14 CAF co-cultures. Organoid is transduced with Lucferase2-P2A-EGFP lentivirus, fibroblast with Renilla-dsRed lentivirus. Dual-Glo Luciferase assay is used to report viability data.
In assay [3] the test system is Colon cancer organoid. Kind of assay: Identification of compartment-specific drug sensitivities in O20 CRC organoid-stroma F20 CAF co-cultures. Organoid is transduced with Lucferase2-P2A-EGFP lentivirus, fibroblast with Renilla-dsRed lentivirus. Dual-Glo Luciferase assay is used to report viability data.
Setting [4] is: Transduced with Lucferase2-P2A-EGFP lentivirus.
Where [5] appears, read: Transduced with Renilla-dsRed lentivirus.

Consider `CCN(CCO)CCCOc1ccc2c(Nc3cc(CC(=O)Nc4cccc(F)c4)[nH]n3)ncnc2c1` [DEFOSBARASERTIB], for which the “Cell Viability” value with Colon cancer organoid [1] (setting [4]) is 9.138%; with Colon cancer organoid [1] (setting [5]), 166.163%; with Colon cancer organoid [2] (setting [4]), 12.9014%; in the assay with Colon cancer organoid [2] (setting [5]), 101.396%; in the assay on Colon cancer organoid [3] (setting [4]) it was 5.365%; in the assay on Colon cancer organoid [3] (setting [5]), 225.013%.

Consider `CC[C@@H]1CN(C(=O)NCC(F)(F)F)C[C@@H]1c1cnc2cnc3[nH]ccc3n12` [UPADACITINIB], for which the “Cell Viability” value in the assay on Colon cancer organoid [1] (setting [4]) worked out at 104.182%; in the assay with Colon cancer organoid [1] (setting [5]) it was 86.3482%; in the assay with Colon cancer organoid [2] (setting [4]), 147.848%; in the assay with Colon cancer organoid [2] (setting [5]), 94.1248%; in the assay with Colon cancer organoid [3] (setting [4]) it was 123.879%; in the assay on Colon cancer organoid [3] (setting [5]), 83.5298%.

Consider `CCS(=O)(=O)c1cc2cc(C[C@](O)(CC(C)(C)c3ccc(F)cc3C(N)=O)C(F)(F)F)[nH]c2cn1` [BI 653048], for which the “Cell Viability” value is reported as 70.4743% with Colon cancer organoid [1] (setting [4]); 199.02% in the assay with Colon cancer organoid [1] (setting [5]); 130.109% in the assay with Colon cancer organoid [2] (setting [4]); 193.347% with Colon cancer organoid [2] (setting [5]); 85.6205% in the assay on Colon cancer organoid [3] (setting [4]); 287.465% in the assay with Colon cancer organoid [3] (setting [5]).

Take `Clc1cccc(-c2nnnn2Cc2cccnc2)c1Cl`: the “Cell Viability” value in the assay on Colon cancer organoid [1] (setting [4]) worked out at 149.518%; in the assay on Colon cancer organoid [1] (setting [5]), 281.873%; in the assay with Colon cancer organoid [2] (setting [4]) it was 96.2273%; in the assay with Colon cancer organoid [2] (setting [5]), 101.208%; with Colon cancer organoid [3] (setting [4]), 106.259%; in the assay on Colon cancer organoid [3] (setting [5]) it was 101.74%.

In the case of `COc1ncc(-c2ccc3nccc(-c4ccnnc4)c3c2)cc1NS(=O)(=O)c1ccc(F)cc1F` [OMIPALISIB], the “Cell Viability” value in the assay with Colon cancer organoid [1] (setting [4]) was 2.362%; in the assay on Colon cancer organoid [1] (setting [5]), 34.7423%; in the assay on Colon cancer organoid [2] (setting [4]) it was 6.452%; with Colon cancer organoid [2] (setting [5]) it was 40.6761%; in the assay on Colon cancer organoid [3] (setting [4]), 2.282%; in the assay on Colon cancer organoid [3] (setting [5]), 94.8256%.

For the compound `Nc1nc(NCc2ccccc2)nc(-c2ccccc2CO)n1` [Ogerin], the “Cell Viability” value with Colon cancer organoid [1] (setting [4]) stood at 100.001%; with Colon cancer organoid [1] (setting [5]), 107.856%; in the assay with Colon cancer organoid [2] (setting [4]), 107.532%; in the assay with Colon cancer organoid [2] (setting [5]) it was 92.7829%; in the assay with Colon cancer organoid [3] (setting [4]) it was 81.1547%; with Colon cancer organoid [3] (setting [5]) it was 98.0569%.

Regarding `N#Cc1cnc(Nc2cc(NC[C@H]3CNCCO3)c(C(F)(F)F)cn2)cn1` [SRA-737], the “Cell Viability” value in the assay on Colon cancer organoid [1] (setting [4]) is recorded as 89.9461%; in the assay on Colon cancer organoid [1] (setting [5]) it was 120.027%; in the assay on Colon cancer organoid [2] (setting [4]), 25.2627%; with Colon cancer organoid [2] (setting [5]) it was 122.808%; in the assay with Colon cancer organoid [3] (setting [4]), 103.573%; in the assay on Colon cancer organoid [3] (setting [5]) it was 133.202%.

For the compound `O=C(NOCC1CC1)c1ccc(F)c(F)c1Nc1ccc(I)cc1Cl` [CI-1040], the “Cell Viability” value in the assay on Colon cancer organoid [1] (setting [4]) turned out to be 38.2974%; with Colon cancer organoid [1] (setting [5]), 73.8424%; in the assay with Colon cancer organoid [2] (setting [4]), 35.7635%; in the assay with Colon cancer organoid [2] (setting [5]), 62.5859%; with Colon cancer organoid [3] (setting [4]), 44.1491%; in the assay with Colon cancer organoid [3] (setting [5]) it was 195.336%.

On to `O=C(Nc1cccnn1)N1CC(C/C=C/c2cncc(Oc3ccc(C(F)(F)F)cn3)n2)C1`, for which the “Cell Viability” value in the assay with Colon cancer organoid [1] (setting [4]) turned out to be 130.234%; in the assay on Colon cancer organoid [1] (setting [5]), 92.9489%; with Colon cancer organoid [2] (setting [4]) it was 132.074%; with Colon cancer organoid [2] (setting [5]), 108.992%; with Colon cancer organoid [3] (setting [4]), 97.9448%; in the assay with Colon cancer organoid [3] (setting [5]), 112.944%.

`Cc1cc(F)c(C(=O)Nc2cccc(-c3nncn3C(C)C)n2)cc1-n1cnc(C2CC2)c1` [SELONSERTIB]: the “Cell Viability” value was determined as 89.6649% with Colon cancer organoid [1] (setting [4]); 105.018% with Colon cancer organoid [1] (setting [5]); 143.918% in the assay on Colon cancer organoid [2] (setting [4]); 74.3836% in the assay on Colon cancer organoid [2] (setting [5]); 141.758% in the assay on Colon cancer organoid [3] (setting [4]); 89.2485% in the assay with Colon cancer organoid [3] (setting [5]).

Turning to `C[C@@H](c1cccc(C#N)c1)n1cc(Cl)cc(C(N)=O)c1=N.Cl`, the “Cell Viability” value is 92.5611% in the assay on Colon cancer organoid [1] (setting [4]); 127.503% in the assay on Colon cancer organoid [1] (setting [5]); 101.632% in the assay with Colon cancer organoid [2] (setting [4]); 106.42% in the assay with Colon cancer organoid [2] (setting [5]); 64.4613% with Colon cancer organoid [3] (setting [4]); 72.4154% in the assay with Colon cancer organoid [3] (setting [5]).

For the compound `O=C(Nc1cccnn1)N1CCC(=Cc2cccc(Oc3ccc(C(F)(F)F)cn3)c2)CC1`, the “Cell Viability” value came out at 103.919% in the assay on Colon cancer organoid [1] (setting [4]); 125.543% in the assay with Colon cancer organoid [1] (setting [5]); 96.3845% in the assay with Colon cancer organoid [2] (setting [4]); 120.944% in the assay with Colon cancer organoid [2] (setting [5]); 75.4997% in the assay on Colon cancer organoid [3] (setting [4]); 114.419% in the assay on Colon cancer organoid [3] (setting [5]).
